The structures appear in SMILES notation.

Among the data in PMC9856672, “SGC-CAMKK2-1: A Chemical Probe for CAMKK2” (Cells, 2023) are remaining binding values, retold here.

One assay has as its target T1, ERK3 (Homo sapiens, UniProt Q16659).
T1 construct: purchased Eurofins DiscoverX KINOMEscan
The experiment in a line: KINOMEscan 1 μM, ERK3. It is filed as binding. The settings on record: 1000 nM; Entrez MAPK6; read-out: Percent Control. From the text:
(§1) Supplement cells-12-00287-s001.zip/File S2. KinomeScan data for the CAMKK2 probe and negative control.xlsx, sheet "SGC-CAMKK2-1" | column: Percent Control

For assay [1], the target named is T2, TXK (Homo sapiens, UniProt P42681).
T2 construct: purchased Eurofins DiscoverX KINOMEscan
T2 sequence (P42681 whole entry): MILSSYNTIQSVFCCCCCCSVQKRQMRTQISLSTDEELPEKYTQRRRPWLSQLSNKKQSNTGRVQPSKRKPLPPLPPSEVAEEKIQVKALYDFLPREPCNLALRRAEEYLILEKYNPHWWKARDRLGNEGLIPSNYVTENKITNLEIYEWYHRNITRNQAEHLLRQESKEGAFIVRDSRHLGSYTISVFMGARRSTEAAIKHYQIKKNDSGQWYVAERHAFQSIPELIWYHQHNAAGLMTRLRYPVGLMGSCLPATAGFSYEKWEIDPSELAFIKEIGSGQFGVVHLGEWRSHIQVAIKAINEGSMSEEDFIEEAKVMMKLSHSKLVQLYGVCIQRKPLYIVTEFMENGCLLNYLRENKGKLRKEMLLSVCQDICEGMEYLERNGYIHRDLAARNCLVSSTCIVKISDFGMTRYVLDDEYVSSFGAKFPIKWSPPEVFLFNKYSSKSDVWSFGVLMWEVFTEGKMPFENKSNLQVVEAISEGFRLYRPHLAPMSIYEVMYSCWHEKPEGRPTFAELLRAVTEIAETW
Nature of the assay: DiscoverX KINOMEscan binding assay at 1 μM, TXK. The settings on record: Compound Concentration 1000 nM, read-out: Percent Control.
Excerpt: as §1

The target of a further assay is T3, GSK3B (Homo sapiens, UniProt P49841).
T3 construct: purchased Eurofins DiscoverX KINOMEscan
Nature of the assay: KINOMEscan 1 μM, GSK3B. Format: binding. The settings on record: 1000 nM; Entrez GSK3B; read-out: Percent Control.
Excerpt: as §1

For assay [2], the target named is T4, RSK1(Kin.Dom.2-C-terminal) (Homo sapiens, UniProt Q15418).
T4 construct: RSK1(Kin.Dom.2-C-terminal); purchased Eurofins DiscoverX KINOMEscan
The experiment in a line: KINOMEscan 1 μM, RSK1(Kin.Dom.2-C-terminal). It is filed as binding. Particulars: 1000 nM; Entrez RPS6KA1; read-out: Percent Control.
Excerpt: as §1

A further assay deals with T5, ABL1-nonphosphorylated (Homo sapiens, UniProt P00519).
T5 construct: purchased Eurofins DiscoverX KINOMEscan
Nature of the assay: KINOMEscan 1 μM, ABL1-nonphosphorylated. Format: binding. The settings on record: 1000 nM; Entrez ABL1; read-out: Percent Control.
Excerpt: as §1

The next assay addresses T6, MAPKAPK2 (Homo sapiens, UniProt P49137).
T6 construct: purchased Eurofins DiscoverX KINOMEscan
The experiment in a line: KINOMEscan 1 μM, MAPKAPK2. The settings on record: 1000 nM; Entrez MAPKAPK2; read-out: Percent Control. It is filed as binding.
Excerpt: as §1

In another assay the target is T7, EPHA1 (Homo sapiens, UniProt P21709).
T7 construct: purchased Eurofins DiscoverX KINOMEscan
Nature of the assay: KINOMEscan 1 μM, EPHA1. Format: binding. The settings on record: 1000 nM; Entrez EPHA1; read-out: Percent Control.
Excerpt: as §1

For another assay, the target named is T8, PIK3CD (Homo sapiens, UniProt O00329).
T8 construct: purchased Eurofins DiscoverX KINOMEscan
The experiment in a line: DiscoverX KINOMEscan binding assay at 1 μM, PIK3CD. The settings on record: Compound Concentration 1000 nM, read-out: Percent Control.
Excerpt: as §1

The target of another assay is T9, CHEK2 (Homo sapiens, UniProt O96017).
T9 construct: purchased Eurofins DiscoverX KINOMEscan
Nature of the assay: KINOMEscan 1 μM, CHEK2. It is filed as binding. The settings on record: 1000 nM; Entrez CHEK2; read-out: Percent Control.
Excerpt: as §1

The next assay has as its target T10, EPHA3 (Homo sapiens, UniProt P29320).
T10 construct: purchased Eurofins DiscoverX KINOMEscan
Nature of the assay: KINOMEscan 1 μM, EPHA3. It is filed as binding. Particulars: 1000 nM; Entrez EPHA3; read-out: Percent Control.
Excerpt: as §1

Another assay deals with T11, EPHA8 (Homo sapiens, UniProt P29322).
T11 construct: purchased Eurofins DiscoverX KINOMEscan
Nature of the assay: KINOMEscan 1 μM, EPHA8. Format: binding. Particulars: 1000 nM; Entrez EPHA8; read-out: Percent Control.
Excerpt: as §1

The target in the next assay is T12, RET (Homo sapiens, UniProt P07949).
T12 construct: purchased Eurofins DiscoverX KINOMEscan
Nature of the assay: KINOMEscan 1 μM, RET. The settings on record: 1000 nM; Entrez RET; read-out: Percent Control. Format: binding.
Excerpt: as §1

A further assay deals with T13, CAMK2A (Homo sapiens, UniProt Q9UQM7).
T13 construct: purchased Eurofins DiscoverX KINOMEscan
The experiment in a line: KINOMEscan 1 μM, CAMK2A. It is filed as binding. The settings on record: 1000 nM; Entrez CAMK2A; read-out: Percent Control.
Excerpt: as §1

In the next assay the target is T14, MAP3K4 (Homo sapiens, UniProt Q9Y6R4).
T14 construct: purchased Eurofins DiscoverX KINOMEscan
The experiment in a line: KINOMEscan 1 μM, MAP3K4. Format: binding. The settings on record: 1000 nM; Entrez MAP3K4; read-out: Percent Control.
Excerpt: as §1

The next assay addresses T15, MARK2 (Homo sapiens, UniProt Q7KZI7).
T15 construct: purchased Eurofins DiscoverX KINOMEscan
The experiment in a line: KINOMEscan at 1 μM, MARK2. It is filed as binding. Particulars: 1000 nM, read-out: Percent Control. From the text: (§2) Supplement cells-12-00287-s001.zip/File S2. KinomeScan data for the CAMKK2 probe and negative control.xlsx, sheet "SGC-CAMKK2-1N" | column: Percent Control

In another assay the target is T16, RET(V804L) (Homo sapiens, UniProt P07949, V804L).
T16 construct: purchased Eurofins DiscoverX KINOMEscan
The experiment in a line: KINOMEscan at 1 μM, RET(V804L). Format: binding. The settings on record: 1000 nM, read-out: Percent Control.
Excerpt: as §2

For a further assay, the target named is T17, EGFR(L861Q) (Homo sapiens, UniProt P00533, L861Q).
T17 construct: purchased Eurofins DiscoverX KINOMEscan
The experiment in a line: KINOMEscan binding assay at 1 μM, EGFR(L861Q). Particulars: Compound Concentration 1000 nM; read-out: Percent Control.
Excerpt: as §2

The target in another assay is T18, CSNK2A1 (Homo sapiens, UniProt P68400).
T18 construct: purchased Eurofins DiscoverX KINOMEscan
The experiment in a line: KINOMEscan at 1 μM, CSNK2A1. It is filed as binding. The settings on record: 1000 nM, read-out: Percent Control.
Excerpt: as §2

A further assay addresses T19, LATS1 (Homo sapiens, UniProt O95835).
T19 construct: purchased Eurofins DiscoverX KINOMEscan
Nature of the assay: KINOMEscan at 1 μM, LATS1. It is filed as binding. The settings on record: 1000 nM, read-out: Percent Control.
Excerpt: as §2

A further assay concerns the target T20, PFTK1 (Homo sapiens, UniProt O94921).
T20 construct: purchased Eurofins DiscoverX KINOMEscan
Nature of the assay: KINOMEscan binding assay at 1 μM, PFTK1. The settings on record: Compound Concentration 1000 nM; read-out: Percent Control.
Excerpt: as §2

Another assay deals with T21, PIK3CA (Homo sapiens, UniProt P42336).
T21 construct: purchased Eurofins DiscoverX KINOMEscan
Nature of the assay: KINOMEscan at 1 μM, PIK3CA. It is filed as binding. Particulars: 1000 nM, read-out: Percent Control.
Excerpt: as §2

A further assay deals with T22, TRKC (Homo sapiens, UniProt Q16288).
T22 construct: purchased Eurofins DiscoverX KINOMEscan
T22 sequence (Q16288 32-839): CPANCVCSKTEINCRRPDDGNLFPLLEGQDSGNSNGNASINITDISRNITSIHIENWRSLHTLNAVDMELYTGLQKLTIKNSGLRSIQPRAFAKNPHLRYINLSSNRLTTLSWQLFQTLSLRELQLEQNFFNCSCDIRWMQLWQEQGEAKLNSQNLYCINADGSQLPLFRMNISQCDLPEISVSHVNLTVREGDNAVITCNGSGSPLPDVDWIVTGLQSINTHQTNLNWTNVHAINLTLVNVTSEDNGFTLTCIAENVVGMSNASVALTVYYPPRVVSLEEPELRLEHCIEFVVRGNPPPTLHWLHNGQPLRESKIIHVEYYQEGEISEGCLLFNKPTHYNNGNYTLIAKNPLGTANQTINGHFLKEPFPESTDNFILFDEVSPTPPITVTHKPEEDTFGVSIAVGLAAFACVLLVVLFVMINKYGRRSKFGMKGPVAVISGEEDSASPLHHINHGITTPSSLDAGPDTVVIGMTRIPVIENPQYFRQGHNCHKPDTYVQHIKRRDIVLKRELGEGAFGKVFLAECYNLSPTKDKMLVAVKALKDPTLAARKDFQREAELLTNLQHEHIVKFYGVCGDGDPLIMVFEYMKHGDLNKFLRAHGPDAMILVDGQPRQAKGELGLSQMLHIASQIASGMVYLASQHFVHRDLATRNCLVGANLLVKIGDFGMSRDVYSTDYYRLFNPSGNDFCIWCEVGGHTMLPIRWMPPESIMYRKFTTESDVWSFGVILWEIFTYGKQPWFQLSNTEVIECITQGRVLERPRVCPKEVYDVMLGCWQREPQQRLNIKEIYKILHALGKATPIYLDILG
Nature of the assay: KINOMEscan at 1 μM, TRKC. The settings on record: 1000 nM, read-out: Percent Control. It is filed as binding.
Excerpt: as §2

In the next assay the target is T23, YANK3 (Homo sapiens, UniProt Q86UX6).
T23 construct: purchased Eurofins DiscoverX KINOMEscan
The experiment in a line: KINOMEscan at 1 μM, YANK3. Particulars: 1000 nM, read-out: Percent Control. It is filed as binding.
Excerpt: as §2

The target in another assay is T24, EPHB6 (Homo sapiens, UniProt O15197).
T24 construct: purchased Eurofins DiscoverX KINOMEscan
T24 sequence (O15197 32-1021): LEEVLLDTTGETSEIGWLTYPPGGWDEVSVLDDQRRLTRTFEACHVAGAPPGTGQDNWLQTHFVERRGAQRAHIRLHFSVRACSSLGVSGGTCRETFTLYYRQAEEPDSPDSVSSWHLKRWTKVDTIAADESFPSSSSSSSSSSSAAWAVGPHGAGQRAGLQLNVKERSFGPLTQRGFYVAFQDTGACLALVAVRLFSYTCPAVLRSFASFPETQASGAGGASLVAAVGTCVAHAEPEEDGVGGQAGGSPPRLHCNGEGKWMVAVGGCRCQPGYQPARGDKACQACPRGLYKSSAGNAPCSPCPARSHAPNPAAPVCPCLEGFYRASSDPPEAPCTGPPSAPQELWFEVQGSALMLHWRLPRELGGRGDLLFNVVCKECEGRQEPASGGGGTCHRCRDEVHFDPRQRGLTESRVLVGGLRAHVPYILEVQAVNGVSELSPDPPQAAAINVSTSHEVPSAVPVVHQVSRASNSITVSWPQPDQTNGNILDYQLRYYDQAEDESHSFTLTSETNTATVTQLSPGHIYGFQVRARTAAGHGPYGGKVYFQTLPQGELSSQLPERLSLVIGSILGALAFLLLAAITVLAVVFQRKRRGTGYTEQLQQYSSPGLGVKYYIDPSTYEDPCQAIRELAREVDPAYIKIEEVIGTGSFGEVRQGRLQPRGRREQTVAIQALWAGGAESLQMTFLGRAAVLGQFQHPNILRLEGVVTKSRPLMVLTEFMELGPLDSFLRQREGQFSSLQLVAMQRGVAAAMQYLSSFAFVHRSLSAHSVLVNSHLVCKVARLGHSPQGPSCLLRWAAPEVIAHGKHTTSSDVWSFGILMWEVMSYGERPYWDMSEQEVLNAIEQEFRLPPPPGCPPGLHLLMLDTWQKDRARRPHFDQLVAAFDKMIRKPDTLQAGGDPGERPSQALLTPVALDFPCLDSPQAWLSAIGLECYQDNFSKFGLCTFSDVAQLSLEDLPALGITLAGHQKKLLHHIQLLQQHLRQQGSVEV
Nature of the assay: KINOMEscan at 1 μM, EPHB6. Format: binding. Particulars: 1000 nM, read-out: Percent Control.
Excerpt: as §2

A further assay deals with T25, CDK9 (Homo sapiens, UniProt P50750).
T25 construct: purchased Eurofins DiscoverX KINOMEscan
T25 sequence (P50750 whole entry): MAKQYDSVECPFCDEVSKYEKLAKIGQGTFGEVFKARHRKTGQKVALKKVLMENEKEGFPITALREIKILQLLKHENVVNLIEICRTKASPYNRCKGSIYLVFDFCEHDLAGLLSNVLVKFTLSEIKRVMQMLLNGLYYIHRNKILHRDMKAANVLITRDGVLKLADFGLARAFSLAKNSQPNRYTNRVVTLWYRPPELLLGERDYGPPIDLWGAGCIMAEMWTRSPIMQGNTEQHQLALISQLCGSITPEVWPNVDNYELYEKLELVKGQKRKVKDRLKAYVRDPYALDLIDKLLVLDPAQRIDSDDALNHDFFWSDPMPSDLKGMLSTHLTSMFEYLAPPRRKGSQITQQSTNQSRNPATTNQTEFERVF
The experiment in a line: KINOMEscan at 1 μM, CDK9. It is filed as binding. The settings on record: 1000 nM, read-out: Percent Control.
Excerpt: as §2

The next assay has as its target T26, SGK3 (Homo sapiens, UniProt Q96BR1).
T26 construct: purchased Eurofins DiscoverX KINOMEscan
Nature of the assay: KINOMEscan binding assay at 1 μM, SGK3. Particulars: Compound Concentration 1000 nM; read-out: Percent Control.
Excerpt: as §2

The target of assay [3] is T27, ABL1(H396P)-phosphorylated (Homo sapiens, UniProt P00519, H396P).
T27 construct: purchased Eurofins DiscoverX KINOMEscan
Nature of the assay: KINOMEscan at 1 μM, ABL1(H396P)-phosphorylated. The settings on record: 1000 nM, read-out: Percent Control. It is filed as binding.
Excerpt: as §2

A further assay deals with T28, WEE1 (Homo sapiens, UniProt P30291).
T28 construct: purchased Eurofins DiscoverX KINOMEscan
Nature of the assay: KINOMEscan at 1 μM, WEE1. The settings on record: 1000 nM, read-out: Percent Control. Format: binding.
Excerpt: as §2

For the next assay, the target named is T29, TGFBR1 (Homo sapiens, UniProt P36897).
T29 construct: purchased Eurofins DiscoverX KINOMEscan
Nature of the assay: KINOMEscan at 1 μM, TGFBR1. Format: binding. The settings on record: 1000 nM, read-out: Percent Control.
Excerpt: as §2

The target in assay [4] is T2, TXK. Nature of the assay: KINOMEscan at 1 μM, TXK. Format: binding. Particulars: 1000 nM, read-out: Percent Control.
Excerpt: as §2

A further assay deals with T30, CDC2L5 (Homo sapiens, UniProt Q14004).
T30 construct: purchased Eurofins DiscoverX KINOMEscan
Nature of the assay: KINOMEscan at 1 μM, CDC2L5. Format: binding. The settings on record: 1000 nM, read-out: Percent Control.
Excerpt: as §2

The next assay concerns the target T31, PAK7 (Homo sapiens, UniProt Q9P286).
T31 construct: purchased Eurofins DiscoverX KINOMEscan
The experiment in a line: KINOMEscan at 1 μM, PAK7. It is filed as binding. The settings on record: 1000 nM, read-out: Percent Control.
Excerpt: as §2

A further assay has as its target T32, AURKA (Homo sapiens, UniProt O14965).
T32 construct: purchased Eurofins DiscoverX KINOMEscan
The experiment in a line: KINOMEscan at 1 μM, AURKA. Format: binding. Particulars: 1000 nM, read-out: Percent Control.
Excerpt: as §2

The target in assay [5] is T33, RPS6KA5(Kin.Dom.1-N-terminal) (Homo sapiens, UniProt O75582).
T33 construct: RPS6KA5(Kin.Dom.1-N-terminal); purchased Eurofins DiscoverX KINOMEscan
T33 sequence (O75582 1-387 limits assumed): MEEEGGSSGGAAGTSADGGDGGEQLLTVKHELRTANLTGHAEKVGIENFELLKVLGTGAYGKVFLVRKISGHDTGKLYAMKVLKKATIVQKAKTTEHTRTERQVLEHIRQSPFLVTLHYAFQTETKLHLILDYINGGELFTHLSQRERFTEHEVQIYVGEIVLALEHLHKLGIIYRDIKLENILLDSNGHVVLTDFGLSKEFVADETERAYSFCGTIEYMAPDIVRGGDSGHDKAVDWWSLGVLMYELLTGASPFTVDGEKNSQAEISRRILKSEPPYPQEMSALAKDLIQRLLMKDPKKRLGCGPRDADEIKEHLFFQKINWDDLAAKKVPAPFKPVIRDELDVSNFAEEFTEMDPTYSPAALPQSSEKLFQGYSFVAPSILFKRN
Nature of the assay: KINOMEscan binding assay at 1 μM, RPS6KA5(Kin.Dom.1-N-terminal). Particulars: Compound Concentration 1000 nM; read-out: Percent Control.
Excerpt: as §2

T15 sequence (Q7KZI7 whole entry): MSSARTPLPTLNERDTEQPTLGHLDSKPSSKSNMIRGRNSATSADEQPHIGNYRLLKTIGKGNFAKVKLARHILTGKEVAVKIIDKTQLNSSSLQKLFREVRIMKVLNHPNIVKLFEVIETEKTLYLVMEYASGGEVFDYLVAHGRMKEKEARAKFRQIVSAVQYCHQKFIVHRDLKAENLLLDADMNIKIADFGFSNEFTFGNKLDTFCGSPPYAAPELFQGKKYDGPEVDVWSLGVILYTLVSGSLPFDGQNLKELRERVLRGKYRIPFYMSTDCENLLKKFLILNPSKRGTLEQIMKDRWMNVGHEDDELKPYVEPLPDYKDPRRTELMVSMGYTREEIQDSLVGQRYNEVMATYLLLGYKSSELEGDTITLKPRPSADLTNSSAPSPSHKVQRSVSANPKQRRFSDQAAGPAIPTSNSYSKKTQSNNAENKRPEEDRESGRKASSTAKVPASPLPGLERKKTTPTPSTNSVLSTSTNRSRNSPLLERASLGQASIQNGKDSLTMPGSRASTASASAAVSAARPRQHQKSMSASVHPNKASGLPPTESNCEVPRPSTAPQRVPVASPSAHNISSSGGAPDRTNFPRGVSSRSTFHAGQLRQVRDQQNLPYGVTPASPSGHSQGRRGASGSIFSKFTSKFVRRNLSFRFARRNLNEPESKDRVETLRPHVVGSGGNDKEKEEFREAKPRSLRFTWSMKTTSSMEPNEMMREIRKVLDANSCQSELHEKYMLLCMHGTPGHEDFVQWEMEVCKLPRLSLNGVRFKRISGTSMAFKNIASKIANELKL
T26 sequence (Q96BR1 whole entry): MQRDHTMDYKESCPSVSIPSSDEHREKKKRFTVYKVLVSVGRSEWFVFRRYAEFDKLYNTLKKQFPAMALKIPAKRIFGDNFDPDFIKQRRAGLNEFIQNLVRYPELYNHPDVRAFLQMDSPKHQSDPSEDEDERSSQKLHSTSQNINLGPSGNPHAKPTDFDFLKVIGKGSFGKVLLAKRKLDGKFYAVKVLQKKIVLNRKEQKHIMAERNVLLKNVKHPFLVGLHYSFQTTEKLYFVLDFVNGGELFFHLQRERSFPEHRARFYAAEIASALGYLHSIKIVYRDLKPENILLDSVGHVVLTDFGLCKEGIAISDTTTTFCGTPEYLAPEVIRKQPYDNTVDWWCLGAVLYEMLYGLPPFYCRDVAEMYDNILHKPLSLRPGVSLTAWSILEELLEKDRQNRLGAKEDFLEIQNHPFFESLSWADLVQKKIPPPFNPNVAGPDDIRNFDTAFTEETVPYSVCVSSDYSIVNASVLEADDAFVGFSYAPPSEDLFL
T6 sequence (P49137 whole entry): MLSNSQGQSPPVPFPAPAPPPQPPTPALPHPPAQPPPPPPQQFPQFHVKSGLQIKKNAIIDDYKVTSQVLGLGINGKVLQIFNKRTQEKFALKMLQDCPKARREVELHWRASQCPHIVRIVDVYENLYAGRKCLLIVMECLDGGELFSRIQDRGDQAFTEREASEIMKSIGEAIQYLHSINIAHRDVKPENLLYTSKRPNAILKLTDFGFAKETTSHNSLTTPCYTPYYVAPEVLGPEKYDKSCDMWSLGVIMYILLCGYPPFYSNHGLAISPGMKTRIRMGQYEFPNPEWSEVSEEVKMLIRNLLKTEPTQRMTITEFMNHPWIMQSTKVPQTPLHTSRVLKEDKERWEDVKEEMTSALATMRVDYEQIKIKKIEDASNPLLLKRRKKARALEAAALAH

For `Cc1cccc(-c2cnc3occ(-c4ccc(C(=O)O)c(C5CCCC5)c4)c3c2)c1` [SGC-CAMKK2-1 (YL-36)], the remaining binding at 1 µM amounted to 81% on ERK3; 100% at TXK [1]; 100% on GSK3B; 80% in assay [2]; 95% on ABL1-nonphosphorylated; 100% on MAPKAPK2. For the same molecule, the remaining binding at 1 µM on EPHA1 turned out to be 100%; at PIK3CD, 100%; on CHEK2, 92%; on EPHA3 it was 100%; on EPHA8 it was 95%; at RET it was 98%. Also, the remaining binding at 1 µM on CAMK2A was 95%; at MAP3K4, 100%.
In the case of `O=C(O)c1ccc(-c2coc3ncc(-c4ccccc4)cc23)cc1Cl` [SGC-CAMKK2-1N (UNC-YL-83)], the remaining binding at 1 µM on MARK2 is 70%; on RET(V804L) it was 90%; at EGFR(L861Q), 100%; at CSNK2A1 it was 80%; on LATS1, 83%; at PFTK1, 100%. Besides, the remaining binding at 1 µM amounted to 74% at PIK3CA; 78% at TRKC; 70% at YANK3; 75% at EPHB6; 89% on CDK9; 100% on SGK3. Also, the remaining binding at 1 µM worked out at 74% in assay [3]; 84% on WEE1; 80% at TGFBR1; 53% at TXK [4]; 57% at CDC2L5; 84% at PAK7. Further, the remaining binding at 1 µM at AURKA turned out to be 74%; in [5], 100%.
